Patent US20230104936A1, “TRPML MODULATORS” (Casma Therapeutics, Inc., priority 2019, published 2023)

System: TFEB
Assay: TFEB nuclear translocation assay, HeLa wt cells
Format: cell-based
Details: Homo sapiens, HeLa, 2 h, 2 hrs compound treatment, Table 1 does not say HeLa wt or TRPML1 KO
Summary of the method: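 Cells are plated overnight, exposed to compounds for 2 hrs at 37° C, fixed with 4% PFA, blocked, and stained overnight at 4° C with rabbit anti-TFEB. After Alexa 488 secondary and Hoechst, nuclei and a perinuclear ring are segmented to give a nuclear:ring intensity ratio and AC50.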

For `CC(c1cccc(F)c1N1CCC2(CC1)COC(C)(C)C2)S(=O)(=O)c1ccc(S(=O)(=O)N(C)C)cc1` (stereo not drawn) [Compound A-752, 4-[1-(2-{3,3-dimethyl-2-oxa-8-azaspiro[4.5]decan-8-yl}-3-fluorophenyl)ethanesulfonyl]-N,N-dimethylbenzene-1-sulfonamide], the AC50 was ≤ 2000 nM.

For `CN(C)S(=O)(=O)c1ccc(S(=O)(=O)Nc2cccc(C(F)F)c2N2CCC3(CC2)COC(C)(C)C3)cc1` [Compound A-753, N4-[3-(difluoromethyl)-2-{3,3-dimethyl-2-oxa-8-azaspiro[4.5]decan-8-yl}phenyl]-N1,N1-dimethylbenzene-1,4-disulfonamide], the AC50 was ≤ 2000 nM.

In the case of `C[C@@H]1CN(C(=O)C2CCN(c3ccccc3NS(=O)(=O)c3ccc(S(=O)(=O)N(C)C)cc3)CC2)C[C@H](C)O1` [Compound A-754, N4-(2-{4-[(2R,6S)-2,6-dimethylmorpholine-4-carbonyl]piperidin-1-yl}phenyl)-N1,N1-dimethylbenzene-1,4-disulfonamide], the AC50 is reported as 2010 to 8000 nM.

With `C[C@@H]1CN(CC2CCN(c3c(F)cccc3NS(=O)(=O)c3ccc(S(=O)(=O)N(C)C)cc3)CC2)C[C@H](C)O1` [Compound A-755, N4-[2-(4-{[(2R,6S)-2,6-dimethylmorpholin-4-yl]methyl}piperidin-1-yl)-3-fluorophenyl]-N1,N1-dimethylbenzene-1,4-disulfonamide] the AC50 was ≤ 2000 nM.

Work on `Cc1nc(C)c(S(=O)(=O)Nc2ccccc2N2CCC(CN3C[C@@H](C)O[C@@H](C)C3)CC2)s1` [Compound A-756, N-[2-(4-{[(2R,6S)-2,6-dimethylmorpholin-4-yl]methyl}piperidin-1-yl)phenyl]-2,4-dimethyl-1,3-thiazole-5-sulfonamide] yielded an AC50 of 2010 to 8000 nM.

For `Cc1ccc(N2CCOCC2)c(NS(=O)(=O)c2ccc(S(=O)(=O)N(C)C)cc2)c1` [Compound A-757, N1,N1-dimethyl-N4-[5-methyl-2-(morpholin-4-yl)phenyl]benzene-1,4-disulfonamide], the AC50 was ≤ 2000 nM.

With `C[C@@H]1CN(CC2CCN(c3c(F)cccc3NS(=O)(=O)c3ccc(S(=O)(=O)C(F)F)cc3)CC2)C[C@H](C)O1` [Compound A-758, 4-difluoromethanesulfonyl-N-[2-(4-{[(2R,6S)-2,6-dimethylmorpholin-4-yl]methyl}piperidin-1-yl)-3-fluorophenyl]benzene-1-sulfonamide] the AC50 was ≤ 2000 nM.

In the case of `C[C@@H]1CN(CC2CCN(c3c(F)cccc3NS(=O)(=O)c3ccc4c(c3)CCC4)CC2)C[C@H](C)O1` [Compound A-759, N-[2-(4-{[(2R,6S)-2,6-dimethylmorpholin-4-yl]methyl}piperidin-1-yl)-3-fluorophenyl]-2,3-dihydro-1H-indene-5-sulfonamide], the AC50 is reported as ≤ 2000 nM.

`O=S(=O)(Nc1ccccc1N1CCOCC1)c1ccc2c(c1)CCC2` [Compound A-760, N-[2-(morpholin-4-yl)phenyl]-2,3-dihydro-1H-indene-5-sulfonamide] was tested, and the AC50 was 2010 to 8000 nM.

In the case of `CN(C)S(=O)(=O)c1ccc(S(=O)(=O)Nc2ccccc2N2CCC(C(=O)N3CCOCC3)CC2)cc1` [Compound A-761, N1,N1-dimethyl-N4-{2-[4-(morpholine-4-carbonyl)piperidin-1-yl]phenyl}benzene-1,4-disulfonamide], the AC50 is reported as ≥ 10000 nM.

In the case of `CN(C)S(=O)(=O)c1ccc(S(=O)(=O)Nc2cccc(F)c2N2CCC(CN3CC4CCC(C3)O4)CC2)cc1` [Compound A-762, N4-{3-fluoro-2-[4-({8-oxa-3-azabicyclo[3.2.1]octan-3-yl}methyl)piperidin-1-yl]phenyl}-N1,N1-dimethylbenzene-1,4-disulfonamide], the AC50 is reported as ≤ 2000 nM.

`CN1CC2(CCN(c3c(F)cccc3NS(=O)(=O)c3ccc(S(=O)(=O)N(C)C)cc3)CC2)OC1=O` [Compound A-764, N4-(3-fluoro-2-{3-methyl-2-oxo-1-oxa-3,8-diazaspiro[4.5]decan-8-yl}phenyl)-N1,N1-dimethylbenzene-1,4-disulfonamide] gave an AC50 of 2010 to 8000 nM.

`C[C@@H]1CN(CC2CCN(c3c(F)cccc3NS(=O)(=O)c3ccc(S(=O)(=O)N4CCC4)cc3)CC2)C[C@H](C)O1` [Compound A-765, 4-(azetidine-1-sulfonyl)-N-[2-(4-{[(2R,6S)-2,6-dimethylmorpholin-4-yl]methyl}piperidin-1-yl)-3-fluorophenyl]benzene-1-sulfonamide] was tested, and the AC50 was ≤ 2000 nM.

For `C[C@@H]1CN(CC2CCN(c3c(F)cccc3NS(=O)(=O)c3ccc(C(F)F)cc3)CC2)C[C@H](C)O1` [Compound A-766, 4-(difluoromethyl)-N-[2-(4-{[(2R,6S)-2,6-dimethylmorpholin-4-yl]methyl}piperidin-1-yl)-3-fluorophenyl]benzene-1-sulfonamide], the AC50 was ≤ 2000 nM.

For `C[C@@H]1CN(CC2CCN(c3c(F)cccc3NS(=O)(=O)C3(c4ccccc4)CC3)CC2)C[C@H](C)O1` [Compound A-767, N-[2-(4-{[(2R,6S)-2,6-dimethylmorpholin-4-yl]methyl}piperidin-1-yl)-3-fluorophenyl]-1-phenylcyclopropane-1-sulfonamide], the AC50 was ≤ 2000 nM.

In the case of `Cc1nc(C2CC2)sc1S(=O)(=O)Nc1ccccc1N1CCC(CN2C[C@@H](C)O[C@@H](C)C2)CC1` [Compound A-768, 2-cyclopropyl-N-[2-(4-{[(2R,6S)-2,6-dimethylmorpholin-4-yl]methyl}piperidin-1-yl)phenyl]-4-methyl-1,3-thiazole-5-sulfonamide], the AC50 is reported as ≤ 2000 nM.

`C[C@@H]1CN(CC2CCN(c3c(F)cccc3NS(=O)(=O)c3ccc(S(=N)(=O)N(C)C)cc3)CC2)C[C@H](C)O1` (stereo partly drawn) [Compound A-769, N-(2-(4-(((2S,6R)-2,6-dimethylmorpholino)methyl)piperidin-1-yl)-3-fluorophenyl)-4-(N,N-dimethylsulfamimidoyl)benzene-sulfonamide] was tested, and the AC50 was ≤ 2000 nM.

`CN(C)S(=O)(=O)c1ccc(S(=O)(=O)Nc2ccccc2N2CCOCC2)cc1` [Compound A-770, N1,N1-dimethyl-N4-[2-(morpholin-4-yl)phenyl]benzene-1,4-disulfonamide] was tested, and the AC50 was ≥ 10000 nM.

For `Cc1ccc(S(=O)(=O)Nc2cccc(F)c2N2CCC(CN3C[C@@H](C)O[C@@H](C)C3)CC2)cc1` [Compound A-771, N-[2-(4-{[(2R,6S)-2,6-dimethylmorpholin-4-yl]methyl}piperidin-1-yl)-3-fluorophenyl]-4-methylbenzene-1-sulfonamide], the AC50 was ≤ 2000 nM.

Molecule `C[C@@H]1CN(CC2CCN(c3ccccc3NS(=O)(=O)c3cnn(CC4CC4)c3)CC2)C[C@H](C)O1` [Compound A-772, 1-(cyclopropylmethyl)-N-[2-(4-[(2R,6S)-2,6-dimethylmorpholin-4-yl]methylpiperidin-1-yl)phenyl]-1H-pyrazole-4-sulfonamide] has an AC50 of 8010 to 9990 nM.

For `CN(C)S(=O)(=O)c1ccc(S(=O)(=O)Nc2cccc(F)c2N2CCC(CN3CCCC(F)(F)C3)CC2)cc1` [Compound A-773, N4-(2-{4-[(3,3-difluoropiperidin-1-yl)methyl]piperidin-1-yl}-3-fluorophenyl)-N1,N1-dimethylbenzene-1,4-disulfonamide], the AC50 was ≤ 2000 nM.

`CN(C)S(=O)(=O)c1ccc(S(=O)(=O)Nc2cccc(F)c2N2CCC(CN3CCC(F)(F)C3)CC2)cc1` [Compound A-774, N4-(2-{4-[(3,3-difluoropyrrolidin-1-yl)methyl]piperidin-1-yl}-3-fluorophenyl)-N1,N1-dimethylbenzene-1,4-disulfonamide] was tested, and the AC50 was ≤ 2000 nM.

`CC(c1cccnc1N1CCC2(CC1)COC(C)(C)C2)S(=O)(=O)c1ccc(S(=O)(=O)N(C)C)cc1` (stereo not drawn) [Compound A-775, 4-[1-(2-{3,3-dimethyl-2-oxa-8-azaspiro[4.5]decan-8-yl}pyridin-3-yl)ethanesulfonyl]-N,N-dimethylbenzene-1-sulfonamide] gave an AC50 of 8010 to 9990 nM.

`C[C@@H]1CN(CC2CCN(c3c(F)cccc3NS(=O)(=O)c3ccc(S(C)(=O)=O)cc3)CC2)C[C@H](C)O1` [Compound A-776, N-[2-(4-{[(2R,6S)-2,6-dimethylmorpholin-4-yl]methyl}piperidin-1-yl)-3-fluorophenyl]-4-methanesulfonylbenzene-1-sulfonamide] was tested, and the AC50 was ≤ 2000 nM.

For `COCC1(C(F)(F)F)CCN(c2ccccc2NS(=O)(=O)c2ccc(S(=O)(=O)N(C)C)cc2)CC1` [Compound A-777, N4-2-[4-(methoxymethyl)-4-(trifluoromethyl)piperidin-1-yl]phenyl-N1,N1-dimethylbenzene-1,4-disulfonamide], the AC50 was ≤ 2000 nM.

`CN(C)S(=O)(=O)c1ccc(S(=O)(=O)Nc2cccc(F)c2N2CCC(CN3C4COCC3C4)CC2)cc1` [Compound A-778, N4-3-fluoro-2-[4-(3-oxa-6-azabicyclo[3.1.1]heptan-6-ylmethyl)piperidin-1-yl]phenyl-N1,N1-dimethylbenzene-1,4-disulfonamide] was tested, and the AC50 was ≤ 2000 nM.

`CC(c1ccc(S(=O)(=O)Nc2ccccc2N2CCC(CN3C[C@@H](C)O[C@@H](C)C3)CC2)cc1)C1CC1` (stereo partly drawn) [Compound A-779, 4-(1-cyclopropylethyl)-N-[2-(4-{[(2R,6S)-2,6-dimethylmorpholin-4-yl]methyl}piperidin-1-yl)phenyl]benzene-1-sulfonamide] was tested, and the AC50 was ≤ 2000 nM.

`C[C@@H]1CN(CC2CCN(c3c(F)cccc3NS(=O)(=O)c3ccc4c(c3)OC(C)(C)C4)CC2)C[C@H](C)O1` [Compound A-780, N-[2-(4-{[(2R,6S)-2,6-dimethylmorpholin-4-yl]methyl}piperidin-1-yl)-3-fluorophenyl]-2,2-dimethyl-2,3-dihydro-1-benzofuran-6-sulfonamide] was tested, and the AC50 was ≤ 2000 nM.

In the case of `C[C@@H]1CN(CC2(C)CCN(c3c(F)cccc3NS(=O)(=O)c3ccc(S(=O)(=O)N(C)C)cc3)CC2)C[C@H](C)O1` [Compound A-781, N4-[2-(4-{[(2R,6S)-2,6-dimethylmorpholin-4-yl]methyl}-4-methylpiperidin-1-yl)-3-fluorophenyl]-N1,N1-dimethylbenzene-1,4-disulfonamide], the AC50 is reported as ≤ 2000 nM.

For `C[C@@H]1CN(CC2CCN(c3c(F)cccc3[C@@H](C)S(=O)(=O)c3ccc(S(=O)(=O)N(C)C)cc3)CC2)C[C@H](C)O1` [Compound A-782, 4-[(1R)-1-[2-(4-{[(2R,6S)-2,6-dimethylmorpholin-4-yl]methyl}piperidin-1-yl)-3-fluorophenyl]ethanesulfonyl]-N,N-dimethylbenzene-1-sulfonamide], the AC50 was ≤ 2000 nM.
